Patent US11992494B2, “Cyclopentathiophene carboxamide derivatives as platelet activating factor receptor antagonists” (Boehringer Ingelheim International GmbH, priority 2021, dated 2024)
Where two headings read alike, the source gives them in different places.

Assays:
PAF = PAF (Homo sapiens, UniProt P25105); conditions: see EP0480455A1, cited from earlier work
PAFR = PAFR (Homo sapiens, UniProt P25105); assay: cellular HTRF IP1 assay: inhibition of PAFR activation by PAF C-16 ligand (endpoint assay); type: cell-based; design: expressed in transfected cells; host or cells: HEK293
Method in brief: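 HEK293 cells overexpressing human PAFR were preincubated with compound (1% DMSO) 90 min at 37°C, then challenged with 11 nM PAF C-16 for 60 min in HBSS/20 mM HEPES pH 7.4/50 mM LiCl/0.1% BSA. IP1 accumulation read by HTRF (665/620 nm emission).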

[1] = Evaluation of chemical stability (solution state stress conditions, HPLC); type: physicochemical
Experimental: Evaluation of Chemical Stability Within solution state stability studies the influence of temperature, pH and light exposure are analyzed. Stress conditions are applied in order to get a fast signal of possible chemical decomposition via hydrolytical, oxidative or photodegradative pathways. […] The stressed/stored samples are analysed by a stability indicative chiral or achiral HPLC-method, as appropriate. Degradation studies are used to simulate chemical stability of compounds in the acidic part of the gastrointestinal tract. The compounds of the invention show high chemical stability in acidic aqueous media (pH value ca. 1.2) what makes their application as medical drugs to treat human diseases less restricted and troublesome. […] Compound is dissolved in an HPLC vial in a mixture of acetonitrile/0.1 M aqueous HCl (ratio: 2:3; pH ca. 1.2) to get a concentration of approximately 0.25 mg/ml. The vial is then transferred into an HPLC autosampler system and maintained at the desired temperature of, e.g., 40° C. A first sample is taken and injected immediately into a standard HPLC system with a UV DAD detector. A further sample is injected after 24 hours. Amount of degraded compound is measured by determining the recovery rate of compound [%] for the 24 h injection using an HPLC standard gradient method. Therefore the peak area of the main peak for the first injection (AUt0) is determined and set as 100%. Peak area of the main peak is determined also for the 24 h injection (AU24 h) and expressed as fraction of (AU24 h)/(AUt0)[%]. Analogously, the amount of degraded compound is determined for stability examinations running for more than 1 day, e.g., for 3 days.

[2] = HEK293 cells overexpressing human PAFR, PAF ligand 11 nM, Table 2

Sequence of PAFR (P25105 whole entry): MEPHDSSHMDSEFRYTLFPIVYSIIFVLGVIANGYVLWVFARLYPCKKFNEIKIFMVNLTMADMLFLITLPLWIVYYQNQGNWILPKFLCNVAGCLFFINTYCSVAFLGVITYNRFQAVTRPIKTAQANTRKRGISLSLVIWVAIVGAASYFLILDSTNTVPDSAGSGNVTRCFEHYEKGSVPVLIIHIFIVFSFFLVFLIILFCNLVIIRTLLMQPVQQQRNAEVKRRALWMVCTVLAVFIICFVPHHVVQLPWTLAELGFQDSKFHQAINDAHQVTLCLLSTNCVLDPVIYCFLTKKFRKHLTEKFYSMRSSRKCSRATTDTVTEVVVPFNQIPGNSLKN
Sequence of PAF (P25105 whole entry): as above

| Structure (SMILES) | PAF-antagonistic activity relative to racemate (PAF) | PAF-antagonistic activity relative to racemate (PAF; listed as Compound B S-configured enantiomer) | IC50 (PAFR; [2]) [nM] | Amount of degradation after 3 d at 40° C. in ACN/0.1M aq. HCl ([1]; 0.25 mg/ml, pH 1.2) [%] | IC50 (PAFR; dedicated head-to-head comparison assay run: cyclopropylene vs di-methyl / cyclobutylene analogues) [nM] | Amount of degradation after 3 d at 40° C. in ACN/0.1M aq. HCl ([1]; 40° C., ACN/0.1M aq. HCl (pH ca. 1.2)) [%] |
| --- | --- | --- | --- | --- | --- | --- |
| Cc1nnc2n1-c1sc(CCC(=O)N3CCOCC3)cc1C(c1ccccc1Cl)=NC2C (stereo not drawn) [example 1 of EP0368175A1 S-configured isomer] | S-configured isomer with several times | several times stronger | – | – | – | – |
| CCCN(CCC)C(=O)[C@@H]1Cc2sc3c(c2C1)C(c1ccccc1Cl)=NC1(CC1)c1nnc(C)n1-3 [Example 104, (13′S)-9′-(2-chlorophenyl)-3′-methyl-N, N-dipropyl-16′-thia-2′,4′,5′,8′-tetraazaspiro[cyclopropane-1,7′-tetracyclo[8.6.0.0^2,6.0^11,15]hexadecane]-1′(10′),3′,5′,8′,11′(15′)-pentaene-13′-carboxamide] | – | – | 0.9 | 1.5 | – | – |
| Cc1nnc2n1-c1sc3c(c1C(c1ccccc1Cl)=NC21CC1)C[C@H](C(=O)N[C@@H]1CCC(F)(F)C1)C3 [Example 124] | – | – | 2.4 | – | 2.6 | 2.5 |
